The source of these data is patent US12227498B2, “Heterocyclic amine derivative and pharmaceutical composition comprising same” (Daewoong Pharmaceutical Co., Ltd., priority 2018, dated 2025).

pIC50: −log10 of the molar value. Some results are limits rather than exact numbers.

The target in one assay is T1, ITK (Homo sapiens, UniProt Q08881).
T1 construct: purchased Promega Corporation
T1 sequence (Q08881 1-620): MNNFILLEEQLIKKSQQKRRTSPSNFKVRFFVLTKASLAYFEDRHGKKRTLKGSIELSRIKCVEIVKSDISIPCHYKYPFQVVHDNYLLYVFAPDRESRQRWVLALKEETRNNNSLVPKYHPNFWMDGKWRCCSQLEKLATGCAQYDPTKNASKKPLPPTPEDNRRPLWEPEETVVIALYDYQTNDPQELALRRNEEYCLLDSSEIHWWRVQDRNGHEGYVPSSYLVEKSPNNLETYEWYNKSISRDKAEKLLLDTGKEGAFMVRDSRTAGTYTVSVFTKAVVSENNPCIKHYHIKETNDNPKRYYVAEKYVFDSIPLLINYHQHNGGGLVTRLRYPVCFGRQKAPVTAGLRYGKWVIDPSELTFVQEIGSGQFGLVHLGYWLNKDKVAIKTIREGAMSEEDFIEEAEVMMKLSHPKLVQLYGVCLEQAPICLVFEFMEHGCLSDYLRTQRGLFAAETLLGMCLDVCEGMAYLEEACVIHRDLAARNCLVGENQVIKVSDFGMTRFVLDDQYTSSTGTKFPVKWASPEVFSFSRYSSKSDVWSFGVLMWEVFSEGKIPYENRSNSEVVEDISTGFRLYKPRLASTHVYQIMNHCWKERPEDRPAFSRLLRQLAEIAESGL
Nature of the assay: Inhibitory activity against ITK, ADP-Glo + ITK Kinase enzyme system kit (Promega). Type of assay: biochemical. The following applies: ITK enzyme 0.4 ng/μl; 15 min preincubation at room temperature; 1 hour at 30° C.; luminescence; duplicate. Here is the method:
(§1) Inhibitory activities against BTK and ITK were measured for the compounds prepared in the above Examples as follows.
The inhibitory activity against ITK was evaluated using ‘ADP-Glo™+ITK Kinase enzyme system’ kit (Promega Corporation). […] To the plate on which reactions were completed, 5 μl of substrate and 5 μl of ATP prepared so as to have a final concentration of […] were added and then allowed to react at 30° C. for 1 hour. All wells of the plate were treated with 25 μl of ADP-Glo™ reagent and then allowed to react at 30° C. for 40 minutes. After that, all wells were treated with 50 μl of kinase detection buffer, and then allowed to react at 30° C. for 30 minutes under light shielding conditions. For the plate on which all reactions were completed, luminescence was measured and the results were calculated. Evaluation was carried out in duplicate, and negative control and positive control were calculated depending on whether or not the enzyme was added without treatment of the compound. The IC50 was calculated based on the calculated values.

A further assay concerns the target T2, BTK (Homo sapiens, UniProt Q06187).
T2 construct: purchased Promega Corporation
Kind of assay: Inhibitory activity against BTK, ADP-Glo + BTK Kinase enzyme system kit (Promega). It is filed as biochemical. The following applies: BTK enzyme 1 ng/μl; ATP 10 µM; 15 min preincubation at room temperature; 1 hour at 30° C.; luminescence; duplicate. Here is the method: as §1
The inhibitory activities against BTK were evaluated using ‘ADP-Glo™+BTK Kinase enzyme system’ kit (Promega Corporation). […] 5 μl of substrate and 5 μl of ATP prepared so as to have a final concentration of 10 µM were added to the plate on which reactions were completed, and then allowed to react at 30° C. for 1 hour. All wells of the plate were treated with 25 μl of ADP-Glo™ reagent and allowed to react at 30° C. for 40 minutes. After that, all wells were treated with 50 μl of kinase detection buffer, and then reacted at 30° C. for 30 minutes under light shielding conditions. For the plate on which all reactions were completed, luminescence was measured and the results were calculated. Evaluation was carried out in duplicate, and negative control and positive control were calculated depending on whether or not the enzyme was added without treatment of the compound. The IC50 was calculated based on the calculated values.

T2 sequence (Q06187 whole entry): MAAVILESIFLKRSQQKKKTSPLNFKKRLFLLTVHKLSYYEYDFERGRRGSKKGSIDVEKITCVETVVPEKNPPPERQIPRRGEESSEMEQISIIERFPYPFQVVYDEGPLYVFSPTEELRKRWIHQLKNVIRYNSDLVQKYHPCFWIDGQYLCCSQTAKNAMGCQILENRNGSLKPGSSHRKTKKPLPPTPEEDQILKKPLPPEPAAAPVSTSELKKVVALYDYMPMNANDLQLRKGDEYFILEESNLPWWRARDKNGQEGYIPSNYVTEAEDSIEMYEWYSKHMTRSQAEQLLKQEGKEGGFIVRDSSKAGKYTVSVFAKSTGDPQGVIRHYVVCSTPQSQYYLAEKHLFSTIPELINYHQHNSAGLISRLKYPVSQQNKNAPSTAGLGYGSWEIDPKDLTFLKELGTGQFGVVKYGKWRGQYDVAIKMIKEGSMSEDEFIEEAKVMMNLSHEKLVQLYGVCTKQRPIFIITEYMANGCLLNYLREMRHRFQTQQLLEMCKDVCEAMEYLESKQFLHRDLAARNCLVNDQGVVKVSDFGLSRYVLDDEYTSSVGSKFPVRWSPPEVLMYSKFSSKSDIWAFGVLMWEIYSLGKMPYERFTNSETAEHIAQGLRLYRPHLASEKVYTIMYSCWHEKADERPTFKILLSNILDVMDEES

Regarding `C=CC(=O)N1CCC(Oc2cc(CN3CCOCC3)cc(Nc3ncc(C)s3)n2)CC1` [Example 11, 1-(4-((6-((5-methylthiazol-2-yl)amino)-4-(morpholinomethyl)pyridin-2-yl)oxy)piperidin-1-yl) prop-2-en-1-one], the pIC50 was 8.11 at ITK and 8.07 at BTK.
As for `C=CC(=O)N1CCCC(Oc2cc(CN3CCOCC3)cc(Nc3ncc(C)s3)n2)C1` (stereo not shown) [Example 12, 1-(3-((6-((5-methylthiazol-2-yl)amino)-4-(morpholinomethyl)pyridin-2-yl)oxy)piperidin-1-yl) prop-2-en-1-one], the negative-log IC50 (pIC50) at ITK and on BTK was 8.70 in each case.
Consider `CC#CC(=O)N1CCC[C@@H](Nc2cc(CN3CCOCC3)cc(Nc3ncc(C)s3)n2)C1` [Example 13, (R)-1-(3-((6-((5-methylthiazol-2-yl)amino)-4-(morpholinomethyl)pyridin-2-yl)amino)piperidin-1-yl) but-2-yn-1-one], for which the pIC50 on ITK and on BTK was less than 6.70 each time.
With `CC#CC(=O)N1CCC(Nc2cc(CN3CCOCC3)cc(Nc3ncc(C)s3)n2)C1` (stereo not shown) [Example 14, 1-(3-((6-((5-methylthiazol-2-yl)amino)-4-(morpholinomethyl)pyridin-2-yl)amino)pyrrolidin-1-yl) but-2-yn-1-one], the negative-log IC50 (pIC50) is 7.31 at ITK and 8.48 on BTK.
In the case of `C=CC(=O)N1CCC[C@H](Oc2cc(CN3CCOCC3)cc(Nc3ncc(C)s3)n2)C1` [Example 15, (S)-1-(3-((6-((5-methylthiazol-2-yl)amino)-4-(morpholinomethyl)pyridin-2-yl)oxy)piperidin-1-yl) prop-2-en-1-one], the results for the negative logarithm of the IC50 (pIC50) on ITK and at BTK were 7.33 and 8.64, respectively.
Taken in the same sequence, the figures for `C=CC(=O)N1CCC[C@@H](Oc2cc(CN3CCOCC3)cc(Nc3ncc(C)s3)n2)C1` [Example 16, (R)-1-(3-((6-((5-methylthiazol-2-yl)amino)-4-(morpholinomethyl)pyridin-2-yl)oxy)piperidin-1-yl) prop-2-en-1-one] were less than 6.00 and 8.96.
On the same counts, the results for `C=CC(=O)N1CCCC(Nc2nc(CN3CCOCC3)cc(Nc3ncc(C)s3)n2)C1` (stereo not shown) [Example 17, 1-(3-((4-((5-methylthiazol-2-yl)amino)-6-(morpholinomethyl)pyrimidin-2-yl)amino)piperidin-1-yl) prop-2-en-1-one] are 8.72 and 8.82.
Taken in the same sequence, the figures for `CC#CC(=O)N1CCC[C@H](Nc2cc(CN3CCOCC3)cc(Nc3ncc(C)s3)n2)C1` [Example 18, (S)-1-(3-((6-((5-methylthiazol-2-yl)amino)-4-(morpholinomethyl)pyridin-2-yl)amino)piperidin-1-yl) but-2-yn-1-one] were 7.30 and 8.28.
In the case of `C=CC(=O)N1CCC[C@H](Nc2cc(CN3CCN(C(C)=O)CC3)cc(Nc3ncc(C)s3)n2)C1` [Example 20], the pIC50 at ITK and on BTK was 8.96 in each case.
On to `C=CC(=O)N1CCC[C@H](Nc2nc(CN3CCOCC3)cc(Nc3ncc(C)s3)n2)C1` [Example 21, (S)-1-(3-((4-((5-methylthiazol-2-yl)amino)-6-(morpholinomethyl)pyrimidin-2-yl)amino)piperidin-1-yl) prop-2-en-1-one], for which the negative-log IC50 (pIC50) on ITK was 8.72; on BTK it was 8.89.
On the same counts, the results for `C=CC(=O)N1CCC[C@H](Nc2cc(CN3CCN(CCOC)CC3)cc(Nc3ncc(C)s3)n2)C1` [Example 22] are 9.00 and 8.92.
Regarding `C=CC(=O)N1CC[C@H](Nc2nc(CN3CCOCC3)cc(Nc3ncc(C)s3)n2)C1` [Example 24, (S)-1-(3-((4-((5-methylthiazol-2-yl)amino)-6-(morpholinomethyl)pyrimidin-2-yl)amino)pyrrolidin-1-yl) prop-2-en-1-one], the negative logarithm of the IC50 (pIC50) on ITK was 8.64; at BTK it was 8.66.
On the same counts, the results for `C=CC(=O)N1CCC[C@@H](Nc2nc(CN3CCOCC3)cc(Nc3ncc(C)s3)n2)C1` [Example 25, (R)-1-(3-((4-((5-methylthiazol-2-yl)amino)-6-(morpholinomethyl)pyrimidin-2-yl)amino)piperidin-1-yl) prop-2-en-1-one] are approximately 6.00 and approximately 6.00.
Taken in the same sequence, the figures for `C=CC(=O)N1CCC[C@H](N(C)c2cc(CN3CCOCC3)cc(Nc3ncc(C)s3)n2)C1` [Example 26, (S)-1-(3-(methyl (6-((5-methylthiazol-2-yl)amino)-4-(morpholinomethyl)pyridin-2-yl)amino)piperidin-1-yl) prop-2-en-1-one] were 7.75 and 8.66.
On the same counts, the results for `C=CC(=O)NC1CCN(c2cc(CN3CCOCC3)cc(Nc3ncc(C)s3)n2)CC1` [Example 27, N-(1-(6-((5-methylthiazol-2-yl)amino)-4-(morpholinomethyl)pyridin-2-yl)piperidin-4-yl) acrylamide] are 7.36 and 7.07.
In the case of `C=CC(=O)N1CCC2CCN(c3cc(CN4CCOCC4)cc(Nc4ncc(C)s4)n3)CC21` (stereo not shown) [Example 28, 1-(6-(6-((5-methylthiazol-2-yl)amino)-4-(morpholinomethyl)pyridin-2-yl)octahydro-1H-pyrrolo[2,3-c]pyridin-1-yl) prop-2-en-1-one], the negative logarithm of the IC50 (pIC50) is 7.50 at ITK and 8.06 on BTK.
On the same counts, the results for `CC#CC(=O)N1CCC2CCN(c3cc(CN4CCOCC4)cc(Nc4ncc(C)s4)n3)CC21` (stereo not shown) [Example 29, 1-(6-(6-((5-methylthiazol-2-yl)amino)-4-(morpholinomethyl)pyridin-2-yl)octahydro-1H-pyrrolo[2,3-c]pyridin-1-yl) but-2-yn-1-one] are 7.30 and 7.73.
For the compound `C=CC(=O)N1CC2(CC(Nc3cc(CN4CCOCC4)cc(Nc4ncc(C)s4)n3)C2)C1` [Example 30, 1-(6-((6-((5-methylthiazol-2-yl)amino)-4-(morpholinomethyl)pyridin-2-yl)amino)-2-azaspiro[3.3]heptan-2-yl) prop-2-en-1-one], the pIC50 at ITK is 7.33; on BTK, 7.17.
For the compound `C=CC(=O)N1CCC[C@H](Nc2nc(CN3CCCCC3)cc(Nc3ncc(C)s3)n2)C1` [Example 31, (S)-1-(3-((4-((5-methylthiazol-2-yl)amino)-6-(piperidin-1-ylmethyl)pyrimidin-2-yl)amino)piperidin-1-yl) prop-2-en-1-one], the pIC50 is 7.81 at ITK and 8.06 on BTK.
`C=CC(=O)N1CCC[C@H](Nc2cc(CN3CCN(CC)CC3)cc(Nc3ncc(C)s3)n2)C1` [Example 32]: the figures for the pIC50 on ITK and on BTK were 8.25 and 8.52, respectively.
Regarding `C=CC(=O)N1CCC[C@H](Nc2cc(OC3CCN(C)CC3)cc(Nc3ncc(C)s3)n2)C1` [Example 33, (S)-1-(3-((4-((1-methylpiperidin-4-yl)oxy)-6-((5-methylthiazol-2-yl)amino)pyridin-2-yl)amino)piperidin-1-yl) prop-2-en-1-one], the results for the negative-log IC50 (pIC50) at ITK and at BTK were 8.41 and 8.74, respectively.
Taken in the same sequence, the figures for `C=CC(=O)N1CCC[C@H](Nc2cc(CN3CCN(CCC#N)CC3)cc(Nc3ncc(C)s3)n2)C1` [Example 34, (S)-3-(4-((2-((1-acryloylpiperidin-3-yl)amino)-6-((5-methylthiazol-2-yl)amino)pyridin-4-yl)methyl)piperazin-1-yl) propanenitrile] were 8.77 and 8.96.
On the same counts, the results for `C=CC(=O)N1CCC[C@H](Nc2cc(C)cc(Nc3ncc(C)s3)n2)C1` [Example 35, (S)-1-(3-((4-methyl-6-((5-methylthiazol-2-yl)amino)pyridin-2-yl)amino)piperidin-1-yl) prop-2-en-1-one] are 7.87 and 8.68.
